Test results: patent publication US5504244A, “Alkylarylketo acids” (Boehringer Ingelheim Pharmaceuticals, Inc., priority 1993, dated 1996)
Where two headings read alike, the source gives them in different places.

Legend:
[1] = test system: 5-HETE biosynthesized by glycogen-stimulated polymorphonuclear leucocytes (PMNs); assay: Hydroxyacid Profile Assay (HPA): inhibition of 5-HETE synthesis in glycogen-elicited rabbit PMNs; assay type: cell-based; conditions: Oryctolagus cuniculus, Leucocyte; for inhibition at 100 µM: 5-HETE synthesis, read-out: Percent Inhibition (100 μM)
Experimental: As previously noted 5-HETE biosynthesis serves as a marker for arachidonic acid metabolism via the 5-lipoxygenase pathway which produces (poly)hydroxyeicosatetraenoic acids and the potent bronchoconstrictor and vasoactive leukotrienes LTC4, LTD4 and LTE4.
Buffer A (8.70 g NaCl; 0.27 g KCl; 0.42 g Na2 HPO4; 0.76 g KH2 PO4; and 1.00 g dextrose per liter H2 O; pH 7.0) (0.325 ml) is introduced into each of a battery of screwtop culture tubes. Then, a solution of a compound (0.100 ml) to be assayed is dispensed into individual tubes. Assays are performed in duplicate at 100 μM and 10 μM concentrations. Control tubes receive Buffer A (0 100 ml) in lieu of compound. Next, rabbit PMNs (2×10^7 cells/tube; 4×10^7cells/ml) (0.500 ml) are added to each tube. The rabbit PMN's used are elicited with glycogen and made into a preparation substantially as described by F. Hirata. et al (1979) Proc. Natl. Acad. Sci. USA, 76, 2640-2643. The tubes are vortexed and preincubated in a shaking 37° C. water bath for 15 minutes.
Thereafter, the tubes are removed from the water bath and calcium ionophore solution (400 μg/ml A-23187; Sigma Chemical Co., St. Louis, Mo.) (0.025 ml), ^14 C-arachidonic acid (0.25 μCi in 0.025 ethanol; New England Nuclear Products, Boston, Mass.) (0.025 ml) and calcium chloride solution (CaCl2.2H2 O ); 105.8 mg/10 […]) (0.025 ml) are added in that order. The tubes are vortexed and returned to the water bath for 30 minutes. The reaction is then terminated by the addition of HCl (0.8N, 0.025 ml).
Extraction and concentration of ^14 C-labeled 5-HETE is performed as follows. First, solution containing 2 parts ethyl acetate, 3 parts CH2 Cl2 and 0.01 ml unlabeled arachidonic acid is added (5.01 ml) to each tube. The tubes are capped and briefly vortexed. The contents of each tube is poured into a polypropylene column fitted with a porous polyethylene disc and Whatman phase separation filter paper. The organic phase is collected by gravity filtration into a conical centrifuge tube, While the aqueous phase is retained in the column by the phase separation paper. Each culture tube is rinsed once with the EtOAc:CH2 Cl2 solution (1.0 ml) and the wash added to the column. The organic phase is concentrated to (0.5 ml) using a Savant Speed Vac concentrator (Savant Instruments, Inc., Hicksville, N.Y.).
After concentration of the organic phase, the tubes are vortexed and stored covered on ice. An aliquot (0.01 ml) is then removed for liquid scintillation counting in a Beckman LS7500 Liquid Scintillation Counter (Beckman Instruments Corp., Fullerton, Calif.). Based on the count, the number of μl containing 1×10^5 cpm is calculated. This volume is applied to a silica gel covered glass plate in a 10 mm streak. The remaining fluid in the tube is measured via syringe and noted.
The TLC plate is placed in a chromatography chamber containing the following solvent system: CHCl3 :MeOH:HOAc:H2 O (v/v;90: 9:1:0.65). The plate is then air dried and counted on a Berthold Linear TLC Analyzer (Berthold Instruments, Inc., Pittsburgh, Pa.) for 30 minutes per lane if a dose response curve had been run, or for 5 min per lane if drug screening had been done. The integrated area of the 5-HETE band for each compound is converted to percent of control and analyzed. The percent inhibition at 100 μM compound concentration and the concentration (μM) which produces a 50% inhibition of 5-HETE synthesis (IC50), are determined for those compounds described in Examples 1-36, and are reported in Table 1 .

[2] = test system: guinea pig ileal strips; assay: Modified Schultz-Dale Assay: inhibition of antigen-induced anaphylactic contraction of passively sensitized ileal strips; assay type: cell-based; conditions: Cavia porcellus; for IC50: value in parentheses
Experimental: In the classic Schultz-Dale assay, guinea pigs are sensitized with a known immunogen or passively sensitized with guinea pig antiserum to the immunogen, strips of ilea are recovered, and the extent of their contraction in response to a challenge exposure to the same antigen is observed as a measure of anaphylactic response. The experiments described here follow this same procedure while exposing the ileal strips to test compound before exposure to antigen challenge (preincubation) and, in some strips, also after antigen challenge (postincubation).
The male Hartley strain guinea pigs (450-650 g) whose ilea are used in this Schultz-Dale assay are passively sensitized with IgE antiovalbumin antiserum as follows. The antiserum is developed in another group of similar guinea pigs as described in Graziano, et al., J. Immunol. 127:1067-1070 (1981) and pooled. The test animals are then each passively sensitized by subcutaneous injection of the pooled antiserum (1 ml).
About 2-7 days after sensitization, the guinea pigs are sacrificed and the terminal ilea are removed. They are cut into strips (6 cm) and positioned in tissue baths (5 ml) of Tyrode's solution with atropine (1 μg/ml) at 37° C. One end of each strip is fixed to an immobile post and the other movably mounted to a Grass Ft. 0.03 linear force displacement transducer and a Grass Model 7 polygraph. The tension is set (at 1 gram) and the tissue is allowed to equilibrate (10 minutes). Tissue viability is tested by establishing a consistent response to histamine (0.5 μg/ml). After several histamine-induced contractions, mepyramine (1 μg/ml) is added to inhibit any contractions due to the anaphylactic release of endogenous histamine.
A minimum of 3 animals are used for each compound tested and, of the 6 strips from each animal, 2 strips are incubated (preincubation) with a test compound (final concentration 75 μM), 2 with an appropriate reference standard (BW-755C at 75 μM) and 2 with saline solution (control) for a predetermined period (5 minutes). After this initial incubation period, ovalbumin (100 μg/ml) is added to each bath and the resulting anaphylactic contraction measured. The data are recorded as of tension produced by the tissue in excess of the 1 gram tension that was initially set. At the peak of the contraction, a dose of the same test compound (75 μM) is added (postincubation) to one control strip and reference standard (FPL-55712 at 1.9 μM). The strips are monitored (1 minute) and any effect on the established contraction is recorded as described above.
Two types of data are derived from the above protocol. First, pre-antigen inhibition (prechallenge) is expressed as the percent inhibition in each of the strips preincubated with test compound measured against the averaged contractions of the two control strips. Prechallenge inhibition by the reference standard is also determined in each experiment as a positive control. The reference used consistently gives 60-80% inhibition. Second, post-antigen inhibition (postchallenge) is determined by measuring the decrease in anaphylactic contraction of a control strip produced by adding either a test compound or standard at the peak of the contraction. The reference used consistently gives 70-90% inhibition. The data in each experiment, therefore, consists of 2 prechallenge and 1 postchallenge value for both test compound and standard.

[3] = added at peak of contraction after antigen, read-out: Postchallenge mean percent inhibition
[4] = preincubation before ovalbumin antigen, read-out: Prechallenge mean percent inhibition
[5] = added at peak of contraction after antigen, read-out: Postchallenge IC50
[6] = preincubation before ovalbumin antigen, read-out: Prechallenge IC50

| SMILES | inhibition at 100 µM [1] [%] | inhibition at 75 µM [2, 3] [%] | inhibition at 75 µM [2, 4] [%] | IC50 [2, 5] [µM] | IC50 [2, 6] [µM] | IC50 ([1]; read-out: IC50 (50% inhibition of 5-HETE synthesis)) [µM] | inhibition at 1.9 µM ([2]; 1.9 μM, positive control, added at peak of contraction, read-out: Postchallenge inhibition by the reference standard) [%] | inhibition at 75 µM ([2]; positive control, preincubation, read-out: Prechallenge inhibition by the reference standard) [%] |
| --- | --- | --- | --- | --- | --- | --- | --- | --- |
| CCCCCCCCc1ccc(C(=O)CCCCC(=O)O)cc1 [Example 6, 5-(4-n-Octylbenzoyl)pentanoic acid] | 77 | 0 | 63 |  |  |  |  |  |
| CCCCCCCCc1ccc(C(=O)Cc2cccc(C(=O)O)c2)cc1 [Example 19, 3-(4-n-Octylphenacyl)benzoic acid] | < 44 | 30 | 78 | > 75 | 51 |  |  |  |
| CCCCOc1ccc(C(=O)c2cccc(C(=O)O)c2)c(OC)c1 [Example 25, 3-(4-Butoxy-2-methoxybenzoyl)benzoic acid] | 70 | 46 | 84 | 14 | 22 |  |  |  |
| CCCCOc1cc(OC)ccc1C(=O)c1cccc(C(=O)O)c1 [Example 28, 3-(2-Butoxy-4-methoxybenzoyl)benzoic acid] |  | 35 | 61 |  |  |  |  |  |
| CCCCOc1ccc(C(=O)CCCCC(=O)O)cc1 [Example 33, 5-(4-n-Butoxybenzoyl)pentanoic acid] | 49 | 29 | 63 |  |  |  |  |  |
| CCCCOc1ccc(C(=O)c2cccc(C(=O)O)c2)c(O)c1 [Example 26, 3-(4-Butoxy-2-hydroxybenzoyl)benzoic acid] |  | 59 | 85 |  |  |  |  |  |
| O=C(O)c1cccc(C(=O)c2ccc(C3CCCCC3)cc2)c1 [Example 35, 3-(4-Cyclohexylbenzoyl)benzoic acid] | 63 | 43 | 66 | > 75 | 38 |  |  |  |
| CCCCCCc1ccc(C(=O)CCCCC(=O)O)cc1 [Example 5, 5-(4-n-Hexylbenzoyl)pentanoic acid] | 47 | 58 | 65 |  |  |  |  |  |
| CCCCCCOc1ccccc1C(=O)CCCCC(=O)O [Example 13, 5-(2-n-Hexyloxybenzoyl)pentanoic acid] | 64 | 43 | 87 | 45 | 15 |  |  |  |
| CCCCCCCc1ccc(C(=O)[C@@H]2CCCC[C@H]2C(=O)O)cc1 (relative stereo) [Example 23, Trans-2-(4-heptylbenzoyl)cyclohexane-1-carboxylic acid] | 70 | 76 | 100 | > 25 | 14 | 5 |  |  |
| CCCCCCCc1ccc(C(=O)CCCC(=O)O)cc1 [Example 34, 4-(4-n-Heptylbenzoyl)butanoic acid] | 76 | 39 | 79 |  | 14 |  |  |  |
| COc1ccc(C(=O)c2cccc(C(=O)O)c2)c(O)c1 [Example 27, 3-(2-Hydroxy-4-methoxybenzoyl)benzoic acid] | 31 | 14 | 58 |  |  |  |  |  |
| CCCCCCCc1ccc(C(=O)Cc2ccccc2C(=O)O)cc1 [Example 17, 2-(4-n-Heptylphenacyl)benzoic acid] | 80 | 100 | 90 | 33 | 10 |  |  |  |
| CCCCCc1ccc(C(=O)Cc2cccc(C(=O)O)c2)cc1 [Example 15, 3-(4-pentylphenacyl)benzoic acid] | 78 | 13 | 81 | > 75 | 27 |  |  |  |
| CCCCCCCc1ccc(C(=O)Cc2cccc(C(=O)O)c2)cc1 [Example 18, 3-(4-n-Heptylphenacyl)benzoic acid] | 73 | 70 | 97 | 51 | 10 |  |  |  |
| CCCCCCOc1ccc(C(=O)c2cccc(C(=O)O)c2)c(C)c1 [Example 29, 3-(4-n-Hexyloxy-2-methylbenzoyl)-benzoic acid] | 88 | 38 | 86 |  |  |  |  |  |
| CCCCCCCc1ccc(C(=O)CCCCC(=O)O)cc1[N+](=O)[O-] [Example 7, 5-(3-Nitro-4-n-heptylbenzoyl)pentanoic acid] | 84 | 28 | 96 | > 75 | 14 |  |  |  |
| CCCCCCCc1ccc(C(=O)c2cccc(-c3nn[nH]n3)c2)cc1 [Example 36, 5-3-(4-n-Heptylbenzoyl)phenyl!tetrazole] |  | 14 | 85 | > 75 | 7 |  |  |  |
| CCCCCCOc1cc(C)ccc1C(=O)c1cccc(C(=O)O)c1 [Example 31, 3-(2-n-Hexyloxy-4-methylbenzoyl)-benzoic acid] |  | 59 | 81 | > 75 | 44 |  |  |  |
| CCCc1c(OCC(O)COc2ccc3c(=O)cc(C(=O)O)oc3c2CCC)ccc(C(C)=O)c1O (stereo not shown) [FPL-55712, reference compound] |  |  |  |  |  |  | 70 to 90 |  |
| NC1=NN(c2cccc(C(F)(F)F)c2)CC1 [BW-755C, reference compound] |  |  |  |  |  |  |  | 60 to 80 |
